Assay results as given in US8758816B2, “Compositions comprising azelastine and methods of use thereof” (priority 2004, dated 2014).
Where a name gives a salt, the structure may show the parent alone.

System: patients with seasonal allergic rhinitis (SAR)
Test: MP 428 study: individual symptom severity scores (runny nose, itchy nose, sneezing, congestion; 0-3 scale)
Type: in vivo, human
Settings: Intent-to-Treat Population
Method: A two-week, randomized, double-blind study, which evaluated the effects of the co-administration of ASTELIN® (azelastine hydrochloride (HCl)) and FLONASE® (fluticasone propionate) compared to either product alone in patients with seasonal allergic rhinitis (SAR) was conducted during the 2006 Texas mountain cedar season. After a 5-day placebo lead-in period, 151 patients with moderate-to-severe allergic rhinitis symptoms were randomized to either: (1) (49 total patients) ASTELIN® (azelastine hydrochloride (HCl)) plus placebo saline nasal spray 2 sprays per nostril, 15 minutes apart, twice daily (AM & PM); (2) (50 total patients) FLONASE® (fluticasone propionate) plus placebo saline nasal spray, 2 sprays per nostril, 15 minutes apart, once daily (AM) and two sessions of placebo saline nasal spray, 2 sprays per nostril, 15 minutes apart (PM); or (3) (52 total patients) the co-administration of ASTELIN® (azelastine hydrochloride (HCl)) 2 sprays per nostril plus FLONASE® (fluticasone propionate) 2 sprays per nostril (AM), 15 minutes apart, and ASTELIN® (azelastine hydrochloride (HCl)) 2 sprays per nostril plus placebo saline nasal spray, 15 minutes apart, (PM) for a 2-week double-blind treatment period.
The primary efficacy variable was the change from baseline in the Total Nasal Symptom Score (TNSS), which comprised sneezing, itchy nose, runny nose, and nasal congestion (individual symptoms scores were assigned a value between 0 and 3, where 0=no symptoms and 3=severe symptoms). This study was not statistically designed to assess the differences between ASTELIN® and FLONASE®.
The results of the clinical trial are summarized and presented in Appendix A hereinbelow and in FIGS. 1-6. […] FIGS. 2-5 show the mean improvement in severity score (0-3 scale) from baseline for the symptoms of runny nose, itchy nose, sneezing and congestion, respectively.

## CN1CCCC(n2nc(Cc3ccc(Cl)cc3)c3ccccc3c2=O)CC1 (racemic) [Azelastine, (±)-1-(2H)-phthalazinone, 4-[(4-chlorophenyl)methyl]-2-(hexahydro-1-methyl-1H-azepin-4-yl)-, mono-hydrochloride]
Day 12
  Percent Change from Baseline in AM and PM Combined Nasal Symptom Score: Congestion, LS Mean: −21.71%
  Percent Change from Baseline in AM and PM Combined Nasal Symptom Score: Congestion, Mean: −22.63%
  Percent Change from Baseline in AM and PM Combined Nasal Symptom Score: Congestion, Median: −16.67%
  Percent Change from Baseline in AM and PM Combined Nasal Symptom Score: Itchy Nose, LS Mean: −29.11%
  Percent Change from Baseline in AM and PM Combined Nasal Symptom Score: Itchy Nose, Mean: −28.74%
  Percent Change from Baseline in AM and PM Combined Nasal Symptom Score: Itchy Nose, Median: −16.67%
  Percent Change from Baseline in AM and PM Combined Nasal Symptom Score: Runny Nose, LS Mean: −22.75%
  Percent Change from Baseline in AM and PM Combined Nasal Symptom Score: Runny Nose, Mean: −23.43%
  Percent Change from Baseline in AM and PM Combined Nasal Symptom Score: Runny Nose, Median: −8.40%
  Percent Change from Baseline in AM and PM Combined Nasal Symptom Score: Sneezing, LS Mean: −34.92%
  Percent Change from Baseline in AM and PM Combined Nasal Symptom Score: Sneezing, Mean: −34.06%
  Percent Change from Baseline in AM and PM Combined Nasal Symptom Score: Sneezing, Median: −33.33%
Day 13
  Change from Baseline in AM and PM Combined Nasal Symptom Score: Congestion, LS Mean: −1.25
  Change from Baseline in AM and PM Combined Nasal Symptom Score: Congestion, Mean: −1.29
  Change from Baseline in AM and PM Combined Nasal Symptom Score: Congestion, Median: −1.00
  Change from Baseline in AM and PM Combined Nasal Symptom Score: Itchy Nose, LS Mean: −1.44
  Change from Baseline in AM and PM Combined Nasal Symptom Score: Itchy Nose, Mean: −1.43
  Change from Baseline in AM and PM Combined Nasal Symptom Score: Itchy Nose, Median: −1.15
  Change from Baseline in AM and PM Combined Nasal Symptom Score: Runny Nose, LS Mean: −1.36
  Change from Baseline in AM and PM Combined Nasal Symptom Score: Runny Nose, Mean: −1.38
  Change from Baseline in AM and PM Combined Nasal Symptom Score: Runny Nose, Median: −1.07
  Change from Baseline in AM and PM Combined Nasal Symptom Score: Sneezing, LS Mean: −1.60
  Change from Baseline in AM and PM Combined Nasal Symptom Score: Sneezing, Mean: −1.60
  Change from Baseline in AM and PM Combined Nasal Symptom Score: Sneezing, Median: −1.75
  Percent Change from Baseline in AM and PM Combined Nasal Symptom Score: Congestion, LS Mean: −22.44%
  Percent Change from Baseline in AM and PM Combined Nasal Symptom Score: Congestion, Mean: −23.01%
  Percent Change from Baseline in AM and PM Combined Nasal Symptom Score: Congestion, Median: −18.64%
  Percent Change from Baseline in AM and PM Combined Nasal Symptom Score: Itchy Nose, LS Mean: −32.25%
  Percent Change from Baseline in AM and PM Combined Nasal Symptom Score: Itchy Nose, Mean: −31.63%
  Percent Change from Baseline in AM and PM Combined Nasal Symptom Score: Itchy Nose, Median: −22.33%
  Percent Change from Baseline in AM and PM Combined Nasal Symptom Score: Runny Nose, LS Mean: −27.36%
  Percent Change from Baseline in AM and PM Combined Nasal Symptom Score: Runny Nose, Mean: −27.57%
  Percent Change from Baseline in AM and PM Combined Nasal Symptom Score: Runny Nose, Median: −24.05%
  Percent Change from Baseline in AM and PM Combined Nasal Symptom Score: Sneezing, LS Mean: −35.90%
  Percent Change from Baseline in AM and PM Combined Nasal Symptom Score: Sneezing, Mean: −35.28%
  Percent Change from Baseline in AM and PM Combined Nasal Symptom Score: Sneezing, Median: −30.43%
Day 14
  Change from Baseline in AM and PM Combined Nasal Symptom Score: Congestion, LS Mean: −1.33
  Change from Baseline in AM and PM Combined Nasal Symptom Score: Congestion, Mean: −1.39
  Change from Baseline in AM and PM Combined Nasal Symptom Score: Congestion, Median: −1.05
  Change from Baseline in AM and PM Combined Nasal Symptom Score: Itchy Nose, LS Mean: −1.39
  Change from Baseline in AM and PM Combined Nasal Symptom Score: Itchy Nose, Mean: −1.39
  Change from Baseline in AM and PM Combined Nasal Symptom Score: Itchy Nose, Median: −1.15
  Change from Baseline in AM and PM Combined Nasal Symptom Score: Runny Nose, LS Mean: −1.32
  Change from Baseline in AM and PM Combined Nasal Symptom Score: Runny Nose, Mean: −1.34
  Change from Baseline in AM and PM Combined Nasal Symptom Score: Runny Nose, Median: −1.43
  Change from Baseline in AM and PM Combined Nasal Symptom Score: Sneezing, LS Mean: −1.51
  Change from Baseline in AM and PM Combined Nasal Symptom Score: Sneezing, Mean: −1.50
  Change from Baseline in AM and PM Combined Nasal Symptom Score: Sneezing, Median: −1.35
  Percent Change from Baseline in AM and PM Combined Nasal Symptom Score: Congestion, LS Mean: −23.87%
  Percent Change from Baseline in AM and PM Combined Nasal Symptom Score: Congestion, Mean: −24.78%
  Percent Change from Baseline in AM and PM Combined Nasal Symptom Score: Congestion, Median: −20.79%
  Percent Change from Baseline in AM and PM Combined Nasal Symptom Score: Itchy Nose, LS Mean: −31.60%
  Percent Change from Baseline in AM and PM Combined Nasal Symptom Score: Itchy Nose, Mean: −31.14%
  Percent Change from Baseline in AM and PM Combined Nasal Symptom Score: Itchy Nose, Median: −25.00%
  Percent Change from Baseline in AM and PM Combined Nasal Symptom Score: Runny Nose, LS Mean: −25.17%
  Percent Change from Baseline in AM and PM Combined Nasal Symptom Score: Runny Nose, Mean: −25.22%
  Percent Change from Baseline in AM and PM Combined Nasal Symptom Score: Runny Nose, Median: −29.41%
  Percent Change from Baseline in AM and PM Combined Nasal Symptom Score: Sneezing, LS Mean: −30.86%
  Percent Change from Baseline in AM and PM Combined Nasal Symptom Score: Sneezing, Mean: −29.95%
  Percent Change from Baseline in AM and PM Combined Nasal Symptom Score: Sneezing, Median: −27.93%
Overall (Day 2 to Day 14)
  Change from Baseline in AM and PM Combined Nasal Symptom Score: Congestion, LS Mean: −1.08
  Change from Baseline in AM and PM Combined Nasal Symptom Score: Congestion, Mean: −1.12
  Change from Baseline in AM and PM Combined Nasal Symptom Score: Congestion, Median: −0.77
  Change from Baseline in AM and PM Combined Nasal Symptom Score: Itchy Nose, LS Mean: −1.14
  Change from Baseline in AM and PM Combined Nasal Symptom Score: Itchy Nose, Mean: −1.16
  Change from Baseline in AM and PM Combined Nasal Symptom Score: Itchy Nose, Median: −0.98
  Change from Baseline in AM and PM Combined Nasal Symptom Score: Runny Nose, LS Mean: −1.06
  Change from Baseline in AM and PM Combined Nasal Symptom Score: Runny Nose, Mean: −1.08
  Change from Baseline in AM and PM Combined Nasal Symptom Score: Runny Nose, Median: −0.67
  Change from Baseline in AM and PM Combined Nasal Symptom Score: Sneezing, LS Mean: −1.48
  Change from Baseline in AM and PM Combined Nasal Symptom Score: Sneezing, Mean: −1.49
  Change from Baseline in AM and PM Combined Nasal Symptom Score: Sneezing, Median: −1.31
  Percent Change from Baseline in AM and PM Combined Nasal Symptom Score: Congestion, LS Mean: −19.23%
  Percent Change from Baseline in AM and PM Combined Nasal Symptom Score: Congestion, Mean: −19.82%
  Percent Change from Baseline in AM and PM Combined Nasal Symptom Score: Congestion, Median: −12.82%
  Percent Change from Baseline in AM and PM Combined Nasal Symptom Score: Itchy Nose, LS Mean: −25.36%
  Percent Change from Baseline in AM and PM Combined Nasal Symptom Score: Itchy Nose, Mean: −25.53%
  Percent Change from Baseline in AM and PM Combined Nasal Symptom Score: Itchy Nose, Median: −19.66%
  Percent Change from Baseline in AM and PM Combined Nasal Symptom Score: Runny Nose, LS Mean: −20.47%
  Percent Change from Baseline in AM and PM Combined Nasal Symptom Score: Runny Nose, Mean: −21.06%
  Percent Change from Baseline in AM and PM Combined Nasal Symptom Score: Runny Nose, Median: −15.44%
  Percent Change from Baseline in AM and PM Combined Nasal Symptom Score: Sneezing, LS Mean: −34.20%
  Percent Change from Baseline in AM and PM Combined Nasal Symptom Score: Sneezing, Mean: −33.98%
  Percent Change from Baseline in AM and PM Combined Nasal Symptom Score: Sneezing, Median: −33.20%
